Experiments:
Sprague Dawley rats = assay: Rat skeletal muscle injury model: collagen deposition and myogenesis; type: in vivo; settings: UBM implant
Experimental: An established rodent skeletal muscle injury model was used to evaluate the effect of the COX1/2 inhibitor, Aspirin, on the ECM scaffold mediated constructive remodeling response. Briefly, three days prior to the surgical procedure, animals were randomly assigned to either the Aspirin treated (3 mg/mL Aspirin in drinking water) or control (vehicle) group. Bilateral 1.5 cm×1.5 cm partial thickness defects were created in the abdominal musculature. A size-matched pre-cast UBM hydrogel and an overlying 2×2 cm single layer sheet of UBM was then placed in the muscle defect area. The remodeling response was evaluated following 3, 7, 14, and 35 days by quantitative histomorphologic metrics (Wolf M T, Carruthers […], Crapo P M, Huber A, Burnsed O A, Londono R, Johnson […] and others. Polypropylene surgical mesh coated with extracellular matrix mitigates the host foreign body response. J Biomed Mater Res A 2013 and Wolf […], Brennan-Pierce E P, Johnson S A, Carruthers […] hydrogel derived from decellularized dermal extracellular matrix. Biomaterials 2012;33(29):7028-38), including characterization of macrophage phenotype and neo tissue deposition. Thirty-two female Sprague Dawley rats (350-400 g at implantation) were purchased from Harlan Laboratories. […] Salicylates in whole blood were determined using the Salicylates Detection Kit from Neogen according to the manufacturer's instructions. […] Fast and Slow Myosin Heavy Chain: Myosin heavy chain positive cells in the defect area were determined by immunolabeling for fast and slow myosin heavy chain as previously described (Turner N J, Yates A J, Jr., Weber […], Stolz D B, Gilbert […]. Xenogeneic extracellular matrix as an inductive scaffold for regeneration of a functioning musculotendinous junction. Tissue Eng Part A 2010;16(11):3309-17; Valentin J E, Turner N J, Gilbert […]. Functional skeletal muscle formation with a biologic scaffold. Biomaterials 2010;31(29):7475-84; and Wolf […]. Biologic scaffold composed of skeletal muscle extracellular matrix. […]

[1] = tested on: THP1 macrophage-like cells; assay: COX2 expression by western blot; type: cell-based, human; settings: Aspirin 200 μM with UBM hydrogel 0.5 mg/mL; 4, 8, 24 hours
Experimental: Cells were then treated with UBM hydrogel for 4, 8, or 24 hours. At the specified time points, cells were washed extensively with 1× PBS and lysis buffer (50 mM Tris, 20 mM NaCl, 1% Triton X-100) was added. Cells were mechanically removed from the culture dish, transferred to centrifuge tubes and incubated on ice for 10 minutes. Lysates were spun down at 14000 rpm for 20 minutes at 4° C. to remove any debris. The clarified lysate was stored at −80° C. Lysates were diluted 1:1 in 2× Laemmli Sample Buffer (Bio-Rad, Hercules, CA) and boiled at 95° C. for 5 minutes. Samples were then resolved on 9% SDS-PAGE gels (National Diagnostics) and transferred to polyvinyldifluoride (PVDF, Millipore) membranes. Membranes were blocked with 1:1 Odyssey Blocking Buffer:1×PBS (Licor) overnight at 4° C. […]

THP1 cells = assay: CD206 and CD86 expression by western blot; type: cell-based, human; settings: Aspirin 200 μM with UBM hydrogel
Experimental: THP-1 human monocytes were obtained from the American Tissue Culture Collection (ATCC, Manassas, VA) and maintained in RPMI, 10% FBS, 1% penicillin/streptomycin, 2 mM L-glutamine, and 1 mM sodium pyruvate in a humidified atmosphere at 37° C. with 5% CO2. For experiments, 500,000 THP-1 cells/mL were plated with 320 nM phorbol 12-myristate 13-acetate (PMA) for 24 hours to induce differentiation into macrophages. Adherent macrophages were washed in PBS and placed in fresh media, followed by a 24 hour incubation to acquiesce.
THP1 macrophage-like cells prepared as described in the cell culture section had 200 μM Aspirin added (where appropriate) 1 hour prior to UBM hydrogel (0.5 mg/mL) treatment. Cells were then treated with UBM hydrogel for 4, 8, or 24 hours. At the specified time points, cells were washed extensively with 1× PBS and lysis buffer (50 mM Tris, 20 mM NaCl, 1% Triton X-100) was added. Cells were mechanically removed from the culture dish, transferred to centrifuge tubes and incubated on ice for 10 minutes. Lysates were spun down at 14000 rpm for 20 minutes at 4° C. to remove any debris. The clarified lysate was stored at −80° C. Lysates were diluted 1:1 in 2× Laemmli Sample Buffer (Bio-Rad, Hercules, CA) and boiled at 95° C. for 5 minutes. Samples were then resolved on 9% SDS-PAGE gels (National Diagnostics) and transferred to polyvinyldifluoride (PVDF, Millipore) membranes. Membranes were blocked with 1:1 Odyssey Blocking Buffer:1×PBS (Licor) overnight at 4° C. Blocked membranes were immunoblotted with either rabbit anti-human COX2 (1:5,000, Abcam), goat anti-human CD206 (1:3,000, Santa-Cruz), rabbit anti-human CD86 (1:5,000, Abcam), or mouse anti-human β-Actin (1:5,000, Abcam) in blocking buffer for 1 hour at room temperature with agitation. Membranes were extensively washed with TBST before the appropriate secondary antibodies (1:10,000, donkey anti-goat IR Dye 680, donkey-anti rabbit IR Dye 680, and donkey anti-mouse IR Dye 800, Licor) in imaging buffer (1:1 Odyssey Blocking Buffer, 0.02% SDS in TBST) were added for 30 minutes with agitation. […]

Structure (SMILES): CC(=O)Oc1ccccc1C(=O)O [Aspirin]
- reduction in collagen deposition (Sprague Dawley rats; 35 day time point, 3 mg/mL Aspirin in drinking water): 24%
- reduction in myogenesis (myogenic index) compared to non-treated controls (Sprague Dawley rats; 35 days post implantation): 4 fold
- in vivo reduction in myogenesis (Sprague Dawley rats): 79%
- change in COX2 expression [1]: did not cause any changes in COX2 expression
- maximum increase in CD86 expression (THP1 cells; at 24 hours): 0.15 fold
- reduction in CD206 expression (THP1 cells; at 24 hours): 91%
- CD206 expression (THP1 cells; early time points): did not alter CD206 expression
